The values that follow come from patent publication US20100215618A1, “NOVEL COMPOUNDS - 644” (Arrow Therapeutics Limited, priority 2009, published 2010).

Bounds are passed on as bounds.

In the data set the test system is HCV replicon cells Huh 9B. It is filed as cell-based. The settings on record: Huh 9B replicon cells, 72 h, methylene blue, total cell area reduced by 50%. In general terms: A replicon is a self-replicating genome or part of one, used to study replication in cells.
Take `CC(C)(C)OC(=O)N[C@@H](C(=O)N1CCC[C@H]1c1ncc(-c2ccc(-c3ccc(C(=O)Nc4ccc(CN5CCS(=O)(=O)CC5)cc4)cc3)cc2)[nH]1)c1ccccc1` [Example 2, Tert-butyl N-[(1R)-2-[(2S)-2-[5-[4-[4-[[4-[(1,1-dioxo-1,4-thiazinan-4-yl)methyl]phenyl]carbamoyl]phenyl]phenyl]-1H-imidazol-2-yl]pyrrolidin-1-yl]-2-oxo-1-phenyl-ethyl]carbamate]: the “HCV TD50 Replicon” value is more than 25 µM.

As to `COC(=O)N[C@H](C(=O)N1CCC[C@H]1c1ncc(-c2ccc(-c3ccc(C(=O)Nc4ccc(CN5CCS(=O)(=O)CC5)cc4)cc3)cc2)[nH]1)C(C)C` [Example 3, Methyl N-[(1S)-1-[(2S)-2-[5-[4-[4-[[4-[(1,1-dioxo-1,4-thiazinan-4-yl)methyl]phenyl]carbamoyl]phenyl]phenyl]-1H-imidazol-2-yl]pyrrolidine-1-carbonyl]-2-methyl-propyl]carbamate], the “HCV TD50 Replicon” value was more than 25 µM.

Take `COC(=O)N[C@H](C(=O)N1CCC[C@H]1c1ncc(-c2ccc(-c3ccc(C(=O)Nc4ccc(CN5CCS(=O)(=O)CC5)cc4)cc3)cc2)[nH]1)C(C)(C)C` [Example 5, Methyl N-[(1S)-1-[(2S)-2-[5-[4-[4-[[4-[(1,1-dioxo-1,4-thiazinan-4-yl)methyl]phenyl]carbamoyl]phenyl]phenyl]-1H-imidazol-2-yl]pyrrolidine-1-carbonyl]-2,2-dimethyl-propyl]carbamate]: the “HCV TD50 Replicon” value came out at 3.9 µM.

Turning to `COC(=O)N[C@H](C(=O)N1CCC[C@H]1c1ncc(-c2ccc(-c3ccc(C(=O)Nc4ccc(CN5CCS(=O)(=O)CC5)cc4)cc3)cc2)[nH]1)c1ccccc1` [Example 6, Methyl N-[(1S)-2-[(2S)-2-[5-[4-[4-[[4-[(1,1-dioxo-1,4-thiazinan-4-yl)methyl]phenyl]carbamoyl]phenyl]phenyl]-1H-imidazol-2-yl]pyrrolidin-1-yl]-2-oxo-1-phenyl-ethyl]carbamate], the “HCV TD50 Replicon” value is more than 25 µM.

Turning to `COC(=O)N[C@@H](C(=O)N1CCC[C@H]1c1ncc(-c2ccc(-c3ccc(C(=O)Nc4ccc(CN5CCS(=O)(=O)CC5)cc4)cc3)cc2)[nH]1)c1ccccc1` [Example 7, Methyl N-[(1R)-2-[(2S)-2-[5-[4-[4-[[4-[(1,1-dioxo-1,4-thiazinan-4-yl)methyl]phenyl]carbamoyl]phenyl]phenyl]-1H-imidazol-2-yl]pyrrolidin-1-yl]-2-oxo-1-phenyl-ethyl]carbamate], the “HCV TD50 Replicon” value was more than 25 µM.

Regarding `CCN(CC)[C@@H](C(=O)N1CCC[C@H]1c1ncc(-c2ccc(-c3ccc(C(=O)Nc4ccc(CN5CCS(=O)(=O)CC5)cc4)cc3)cc2)[nH]1)c1ccccc1` [Example 8, 4-[4-[2-[(2S)-1-[(2R)-2-(diethylamino)-2-phenyl-acetyl]pyrrolidin-2-yl]-1H-imidazol-5-yl]phenyl]-N-[4-[(1,1-dioxo-1,4-thiazinan-4-yl)methyl]phenyl]benzamide], the “HCV TD50 Replicon” value is more than 25 µM.

As to `CN(C)[C@@H](C(=O)N1CCC[C@H]1c1ncc(-c2ccc(-c3ccc(C(=O)Nc4ccc(CN5CCS(=O)(=O)CC5)cc4)cc3)cc2)[nH]1)c1ccccc1` [Example 9, 4-[4-[2-[(2S)-1-[(2R)-2-(dimethylamino)-2-phenyl-acetyl]pyrrolidin-2-yl]-1H-imidazol-5-yl]phenyl]-N-[4-[(1,1-dioxo-1,4-thiazinan-4-yl)methyl]phenyl]benzamide], the “HCV TD50 Replicon” value is more than 25 µM.

For `COC(=O)N[C@@H](CC(C)C)C(=O)N1CCC[C@H]1c1ncc(-c2ccc(-c3ccc(C(=O)Nc4ccc(CN5CCS(=O)(=O)CC5)cc4)cc3)cc2)[nH]1` [Example 14, Methyl N-[(1S)-1-[(2S)-2-[5-[4-[4-[[4-[(1,1-dioxo-1,4-thiazinan-4-yl)methyl]phenyl]carbamoyl]phenyl]phenyl]-1H-imidazol-2-yl]pyrrolidine-1-carbonyl]-3-methyl-butyl]carbamate], the “HCV TD50 Replicon” value is more than 25 µM.

Consider `CC[C@H](C)[C@H](NC(=O)OC)C(=O)N1CCC[C@H]1c1ncc(-c2ccc(-c3ccc(C(=O)Nc4ccc(CN5CCS(=O)(=O)CC5)cc4)cc3)cc2)[nH]1` [Example 16, Methyl N-[(1S,2S)-1-[(2S)-2-[5-[4-[4-[[4-[(1,1-dioxo-1,4-thiazinan-4-yl)methyl]phenyl]carbamoyl]phenyl]phenyl]-1H-imidazol-2-yl]pyrrolidine-1-carbonyl]-2-methyl-butyl]carbamate], for which the “HCV TD50 Replicon” value was more than 25 µM.

For the compound `COC(=O)N[C@H](C(=O)N1CCOC[C@H]1c1ncc(-c2ccc(-c3ccc(C(=O)Nc4ccc(CN5CCS(=O)(=O)CC5)cc4)cc3)cc2)[nH]1)c1ccccc1` [Example 47, Methyl N-[(1S)-2-[(3R)-3-[5-[4-[4-[[4-[(1,1-dioxo-1,4-thiazinan-4-yl)methyl]phenyl]carbamoyl]phenyl]phenyl]-1H-imidazol-2-yl]morpholin-4-yl]-2-oxo-1-phenyl-ethyl]carbamate], the “HCV TD50 Replicon” value was more than 25 µM.

For the compound `COC(=O)N[C@H](C(=O)N1CCC[C@H]1c1ncc(-c2ccc(-c3ccc(C(=O)Nc4ccc(CN5CCS(=O)(=O)CC5)cc4)cc3)c(C)c2)[nH]1)C(C)C` [Example 54, Methyl N-[(1S)-1-[(2S)-2-[5-[4-[4-[[4-[(1,1-dioxo-1,4-thiazinan-4-yl)methyl]phenyl]carbamoyl]phenyl]-3-methyl-phenyl]-1H-imidazol-2-yl]pyrrolidine-1-carbonyl]-2-methyl-propyl]carbamate], the “HCV TD50 Replicon” value was more than 25 µM.
